Experimental data from ChEMBL document CHEMBL1909046, “DrugMatrix in vitro pharmacology data”.

System: not listed separately
Assay: DRUGMATRIX: Potassium Channel [KATP] radioligand binding (ligand: [3H] Glyburide)
Type: cell membranes, Membrane
Details: hit-t15; Not Active = under 50% inhibition at 10 µM

| SMILES | IC50 | Ki |
| --- | --- | --- |
| CN1CCN(C(c2ccccc2)c2ccccc2)CC1 [CYCLIZINE] | Not Active | Not Active |
| CN1C[C@@H]2C[C@H]1CN2c1cc2c(cc1F)c(=O)c(C(=O)O)cn2C1CC1 [DANOFLOXACIN] | Not Active | Not Active |
| COc1cccc2c1C(=O)c1c(O)c3c(c(O)c1C2=O)C[C@@](O)(C(C)=O)C[C@@H]3O[C@H]1C[C@H](N)[C@H](O)[C@H](C)O1 [DAUNORUBICIN] | Not Active | Not Active |
| O=C(O)c1cc(-c2ccc(F)cc2F)ccc1O [DIFLUNISAL] | Not Active | Not Active |
| C[S+](C)[O-] [DIMETHYL SULFOXIDE] | Not Active | Not Active |
| CC1=NN(c2ccccc2)C(=O)C1 [EDARAVONE] | Not Active | Not Active |
| CC(C)C[C@H]1C(=O)N2CCC[C@H]2[C@]2(O)O[C@](NC(=O)[C@@H]3C=C4c5cccc6[nH]cc(c56)C[C@H]4N(C)C3)(C(C)C)C(=O)N12 [ERGOCRYPTINE] | Not Active | Not Active |

System: not listed separately
Assay: DRUGMATRIX: Imidazoline I2, Central radioligand binding (ligand: [3H] Idazoxan)
Type: cell membranes, Rattus norvegicus, Wistar, Cerebral cortex, Membrane
Details: Not Active = under 50% inhibition at 10 µM

| SMILES | IC50 | Ki |
| --- | --- | --- |
| CN1C[C@@H]2C[C@H]1CN2c1cc2c(cc1F)c(=O)c(C(=O)O)cn2C1CC1 [DANOFLOXACIN] | Not Active | Not Active |
| COc1cccc2c1C(=O)c1c(O)c3c(c(O)c1C2=O)C[C@@](O)(C(C)=O)C[C@@H]3O[C@H]1C[C@H](N)[C@H](O)[C@H](C)O1 [DAUNORUBICIN] | Not Active | Not Active |
| O=C(O)c1cc(-c2ccc(F)cc2F)ccc1O [DIFLUNISAL] | Not Active | Not Active |
| C[S+](C)[O-] [DIMETHYL SULFOXIDE] | Not Active | Not Active |
| CC1=NN(c2ccccc2)C(=O)C1 [EDARAVONE] | Not Active | Not Active |

Same assay, conditions: Not Active = under 50% inhibition at 10 µM; read-out: IC50

| SMILES | IC50 [nM] |
| --- | --- |
| CN1CCN(C(c2ccccc2)c2ccccc2)CC1 [CYCLIZINE] | 3130 |
| CC(C)C[C@H]1C(=O)N2CCC[C@H]2[C@]2(O)O[C@](NC(=O)[C@@H]3C=C4c5cccc6[nH]cc(c56)C[C@H]4N(C)C3)(C(C)C)C(=O)N12 [ERGOCRYPTINE] | 3.28 |

Same assay, conditions: Not Active = under 50% inhibition at 10 µM; read-out: Ki

| SMILES | Ki [nM] |
| --- | --- |
| CN1CCN(C(c2ccccc2)c2ccccc2)CC1 [CYCLIZINE] | 2090 |
| CC(C)C[C@H]1C(=O)N2CCC[C@H]2[C@]2(O)O[C@](NC(=O)[C@@H]3C=C4c5cccc6[nH]cc(c56)C[C@H]4N(C)C3)(C(C)C)C(=O)N12 [ERGOCRYPTINE] | 2.19 |

Molecular target: T1, Calcitonin receptor (Homo sapiens, UniProt P30988); further: in other assays of this panel Not Active means under 50% inhibition at 10 µM
T1 sequence (P30988 whole entry): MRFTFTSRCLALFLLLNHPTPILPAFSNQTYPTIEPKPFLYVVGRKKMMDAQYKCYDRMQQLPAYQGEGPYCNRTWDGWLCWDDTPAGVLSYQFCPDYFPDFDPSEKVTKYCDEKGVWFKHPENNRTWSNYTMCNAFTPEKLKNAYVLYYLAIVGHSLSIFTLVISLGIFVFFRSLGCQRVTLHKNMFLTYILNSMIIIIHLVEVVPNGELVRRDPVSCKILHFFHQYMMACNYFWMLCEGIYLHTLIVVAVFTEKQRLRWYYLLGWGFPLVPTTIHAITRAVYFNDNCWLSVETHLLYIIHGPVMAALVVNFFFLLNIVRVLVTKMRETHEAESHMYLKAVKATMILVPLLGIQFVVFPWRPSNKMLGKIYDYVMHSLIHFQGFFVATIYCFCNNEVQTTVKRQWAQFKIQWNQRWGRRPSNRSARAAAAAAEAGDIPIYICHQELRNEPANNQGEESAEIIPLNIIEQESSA
Assay: not given
Type: cell membranes, Membrane
Details: t47d

| SMILES | IC50 |
| --- | --- |
| CN1CCN(C(c2ccccc2)c2ccccc2)CC1 [CYCLIZINE] | Not Active |
| CN1C[C@@H]2C[C@H]1CN2c1cc2c(cc1F)c(=O)c(C(=O)O)cn2C1CC1 [DANOFLOXACIN] | Not Active |
| COc1cccc2c1C(=O)c1c(O)c3c(c(O)c1C2=O)C[C@@](O)(C(C)=O)C[C@@H]3O[C@H]1C[C@H](N)[C@H](O)[C@H](C)O1 [DAUNORUBICIN] | Not Active |
| O=C(O)c1cc(-c2ccc(F)cc2F)ccc1O [DIFLUNISAL] | Not Active |
| C[S+](C)[O-] [DIMETHYL SULFOXIDE] | Not Active |
| CC1=NN(c2ccccc2)C(=O)C1 [EDARAVONE] | Not Active |
| CC(C)C[C@H]1C(=O)N2CCC[C@H]2[C@]2(O)O[C@](NC(=O)[C@@H]3C=C4c5cccc6[nH]cc(c56)C[C@H]4N(C)C3)(C(C)C)C(=O)N12 [ERGOCRYPTINE] | Not Active |

Molecular target: Sodium-dependent noradrenaline transporter (Homo sapiens, UniProt P23975)
Sequence (P23975 whole entry): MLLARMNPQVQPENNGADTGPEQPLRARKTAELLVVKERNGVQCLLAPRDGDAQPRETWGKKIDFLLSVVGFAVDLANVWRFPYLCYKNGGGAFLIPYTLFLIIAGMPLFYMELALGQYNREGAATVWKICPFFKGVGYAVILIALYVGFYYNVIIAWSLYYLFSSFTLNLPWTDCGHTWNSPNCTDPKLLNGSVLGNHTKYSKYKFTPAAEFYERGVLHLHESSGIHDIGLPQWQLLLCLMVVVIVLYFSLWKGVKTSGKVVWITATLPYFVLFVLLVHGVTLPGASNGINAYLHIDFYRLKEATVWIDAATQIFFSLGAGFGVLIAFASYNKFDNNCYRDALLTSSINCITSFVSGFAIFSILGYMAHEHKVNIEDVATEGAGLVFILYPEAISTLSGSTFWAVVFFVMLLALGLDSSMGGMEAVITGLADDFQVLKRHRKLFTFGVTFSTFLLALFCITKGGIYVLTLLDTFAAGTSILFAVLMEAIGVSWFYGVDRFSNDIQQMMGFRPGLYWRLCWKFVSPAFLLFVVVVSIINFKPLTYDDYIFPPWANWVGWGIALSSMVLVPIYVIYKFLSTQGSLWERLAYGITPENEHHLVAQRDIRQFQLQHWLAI
Assay: DRUGMATRIX: Norepinephrine Transporter radioligand binding (ligand: [125I] RTI-55)
Type: cell membranes, MDCK, Membrane
Details: mdck; Not Active = under 50% inhibition at 10 µM

| SMILES | IC50 |
| --- | --- |
| CN1CCN(C(c2ccccc2)c2ccccc2)CC1 [CYCLIZINE] | Not Active |
| CN1C[C@@H]2C[C@H]1CN2c1cc2c(cc1F)c(=O)c(C(=O)O)cn2C1CC1 [DANOFLOXACIN] | Not Active |
| COc1cccc2c1C(=O)c1c(O)c3c(c(O)c1C2=O)C[C@@](O)(C(C)=O)C[C@@H]3O[C@H]1C[C@H](N)[C@H](O)[C@H](C)O1 [DAUNORUBICIN] | Not Active |
| O=C(O)c1cc(-c2ccc(F)cc2F)ccc1O [DIFLUNISAL] | Not Active |
| C[S+](C)[O-] [DIMETHYL SULFOXIDE] | Not Active |
| CC1=NN(c2ccccc2)C(=O)C1 [EDARAVONE] | Not Active |
| CC(C)C[C@H]1C(=O)N2CCC[C@H]2[C@]2(O)O[C@](NC(=O)[C@@H]3C=C4c5cccc6[nH]cc(c56)C[C@H]4N(C)C3)(C(C)C)C(=O)N12 [ERGOCRYPTINE] | Not Active |

System: not listed separately
Assay: DRUGMATRIX: Platelet-Derived Growth Factor (PDGF) radioligand binding (ligand: [125I] PDGF)
Type: cell-based
Details: nih3t3; Not Active = under 50% inhibition at 10 µM

| SMILES | IC50 | Ki |
| --- | --- | --- |
| CN1CCN(C(c2ccccc2)c2ccccc2)CC1 [CYCLIZINE] | Not Active | Not Active |
| CN1C[C@@H]2C[C@H]1CN2c1cc2c(cc1F)c(=O)c(C(=O)O)cn2C1CC1 [DANOFLOXACIN] | Not Active | Not Active |
| COc1cccc2c1C(=O)c1c(O)c3c(c(O)c1C2=O)C[C@@](O)(C(C)=O)C[C@@H]3O[C@H]1C[C@H](N)[C@H](O)[C@H](C)O1 [DAUNORUBICIN] | Not Active | Not Active |
| O=C(O)c1cc(-c2ccc(F)cc2F)ccc1O [DIFLUNISAL] | Not Active | Not Active |
| C[S+](C)[O-] [DIMETHYL SULFOXIDE] | Not Active | Not Active |
| CC1=NN(c2ccccc2)C(=O)C1 [EDARAVONE] | Not Active | Not Active |
| CC(C)C[C@H]1C(=O)N2CCC[C@H]2[C@]2(O)O[C@](NC(=O)[C@@H]3C=C4c5cccc6[nH]cc(c56)C[C@H]4N(C)C3)(C(C)C)C(=O)N12 [ERGOCRYPTINE] | Not Active | Not Active |

Molecular target: T2, Interstitial collagenase (Homo sapiens, UniProt P03956);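 further: MMP-1 enzyme inhibition assay using a peptide substrate; in other assays of this panel Not Active means under 50% inhibition at 10 µM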
T2 sequence (P03956 whole entry): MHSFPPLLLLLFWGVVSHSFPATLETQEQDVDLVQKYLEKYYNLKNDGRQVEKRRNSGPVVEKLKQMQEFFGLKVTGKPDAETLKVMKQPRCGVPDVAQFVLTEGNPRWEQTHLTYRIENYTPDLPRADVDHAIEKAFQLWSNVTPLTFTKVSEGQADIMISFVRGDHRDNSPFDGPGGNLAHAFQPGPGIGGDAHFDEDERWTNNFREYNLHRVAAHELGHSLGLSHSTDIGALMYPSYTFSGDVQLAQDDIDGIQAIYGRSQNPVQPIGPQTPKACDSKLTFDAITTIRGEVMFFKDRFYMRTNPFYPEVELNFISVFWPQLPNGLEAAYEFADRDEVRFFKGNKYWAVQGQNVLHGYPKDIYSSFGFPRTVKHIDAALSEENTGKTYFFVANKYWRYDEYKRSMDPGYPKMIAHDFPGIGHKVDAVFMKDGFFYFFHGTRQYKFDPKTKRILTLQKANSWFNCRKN
Assay: biochemical
Type: tissue-based, Rheumatoid synovial fibroblasts
Details: not given

| SMILES | IC50 |
| --- | --- |
| CN1CCN(C(c2ccccc2)c2ccccc2)CC1 [CYCLIZINE] | Not Active |
| CN1C[C@@H]2C[C@H]1CN2c1cc2c(cc1F)c(=O)c(C(=O)O)cn2C1CC1 [DANOFLOXACIN] | Not Active |
| COc1cccc2c1C(=O)c1c(O)c3c(c(O)c1C2=O)C[C@@](O)(C(C)=O)C[C@@H]3O[C@H]1C[C@H](N)[C@H](O)[C@H](C)O1 [DAUNORUBICIN] | Not Active |
| O=C(O)c1cc(-c2ccc(F)cc2F)ccc1O [DIFLUNISAL] | Not Active |
| C[S+](C)[O-] [DIMETHYL SULFOXIDE] | Not Active |
| CC1=NN(c2ccccc2)C(=O)C1 [EDARAVONE] | Not Active |
| CC(C)C[C@H]1C(=O)N2CCC[C@H]2[C@]2(O)O[C@](NC(=O)[C@@H]3C=C4c5cccc6[nH]cc(c56)C[C@H]4N(C)C3)(C(C)C)C(=O)N12 [ERGOCRYPTINE] | Not Active |
